Our source for the IC50 values is patent US20250213701A1, “MEDICAMENT FOR TREATING HUMAN TUMOR BASED ON ERF3A-TARGETING PROTEOLYSIS MECHANISM” (SUZHOU DEGEN BIO-MEDICAL CO., LTD., priority 2022, published 2025).

Holding throughout (assay type): cell-based, human
Assay [1] has as its system VCaP cells. Nature of the assay: Anti-proliferative toxicity against prostate cancer cell line Vcap (CCK8). Particulars: 3 days, CCK8. On the procedure:
(§1) Example 82: Detection of Anti-Proliferative Toxicity Against Prostate Cancer Cell Lines Vcap, 22Rv1, and PC-3
(§2) Vcap cells (purchased from the Cell Bank of the Chinese Academy of Sciences, Cat. No. SCSP-5034) were subcultured in a culture medium (DMEM medium+1% penicillin-streptomycin dual-antibiotic solution+10% fetal bovine serum) in an incubator at 5% carbon dioxide and 37° C. 22Rv1 cells (purchased from the Cell Bank of the Chinese Academy of Sciences, Cat. No. TCHu100) were subcultured in a culture medium (RPMI-1640 medium+1% penicillin-streptomycin dual-antibiotic solution+10% fetal bovine serum) in an incubator at 5% carbon dioxide and 37° C.
VCap cells were seeded at 20000 cells/well (90 μL) on a 96-well plate and cultured for 72 h. The original medium was removed, and a new medium of 90 μL was added.
(§3) 10 mM compound stock solutions were prepared in DMSO.
For VCap cells, the compound stock solution was diluted with DMSO to give DMSO solutions 1-10 at concentrations of 0 μM, 80 μM, 16 μM, 3.2 μM, 1.5 μM, 0.5 μM, 0.15 μM, 0.05 μM, 0.025 μM, and 0.0005 μM.
For Vcap cells, 2 μL of each of the above solutions 1-10 was added to 98 μL of Vcap medium to give mixed solutions 20-29 of the compound and the medium.
For Vcap cells, 10 μL of each of the above solutions 20-29 was added to the above cell seed solution to give a total volume of 100 μL (90 μL+10 μL), where the concentrations of the compound in wells were 0 μM, 0.16 μM, 0.032 μM, 0.006 μM, 0.003 μM, 0.001 μM, 0.0003 μM, 0.0001 μM, 0.00005 μM, and 0.00001 μM. All concentrations were in triplicate.
(§4) After the above-treated cells were cultured for 3 days, 10 μL of the CCK8 solution (DOJINDO, Cat. No. PF725) was added to each well. The plate was incubated in an incubator at 37° C. for 1-4 h and then detected on a microplate reader for the reading at 450 nm.

Assay [2] concerns 22Rv1 cells. Nature of the assay: Anti-proliferative toxicity against prostate cancer cell line 22Rv1 (CCK8). Particulars: 3 days, CCK8. On the procedure:
as §1, §2
22Rv1 cells were seeded at 5000 cells/well (90 μL) on a 96-well plate and cultured for 48 h.
as §3
(§5) For 22Rv1 cells and PC-3 cells, the compound stock solution was diluted with DMSO to give DMSO solutions 11-19 at concentrations of 0 μM, 500 μM, 100 μM, 20 μM, 4 μM, 0.8 μM, 0.16 μM, 0.032 μM, 0.0064 μM.
For 22Rv1 cells, 2 μL of each of the above solutions 11-19 was added to 98 μL of 22Rv1 medium to give mixed solutions 30-38 of the compound and the medium.
(§6) For 22Rv1 and PC-3 cells, 10 μL of each of the above solutions 30-38 or 39-47 was added to the above cell seed solution to give a total volume of 100 μL (90 μL+10 μL), where the concentrations of the compound in wells were 0 μM, 1.0 μM, 0.2 μM, 0.04 μM, 0.008 μM, 0.0016 μM, 0.00032 μM, 0.00006 μM, and 0.00001 μM. All concentrations were in triplicate.
as §4

The test system of assay [3] is PC-3 cells. Nature of the assay: Anti-proliferative toxicity against prostate cancer cell line PC-3 (CCK8). Particulars: 3 days. How it is done:
as §1
PC-3 cells (purchased from the Cell Bank of the Chinese Academy of Sciences, Cat. No. SCSP-532) were subcultured in a culture medium (F12K medium+1% penicillin-streptomycin dual-antibiotic solution+10% fetal bovine serum) in an incubator at 5% carbon dioxide and 37° C.
PC-3 cells were seeded at 4000 cells/well (90 μL) on a 96-well plate and cultured for 24 h.
as §3, §5
For PC-3 cells, 2 μL of each of the above solutions 11-19 was added to 98 μL of PC-3 medium to give mixed solutions 39-47 of the compound and the medium.
as §6, §4

Broadly, the IC50 is the midpoint of a concentration-inhibition curve. High values mean weaker potency, low ones greater potency. Take `C[C@]12C=CC(=O)N[C@@H]1CC[C@@H]1[C@@H]2CC[C@]2(C)[C@@H](C(=O)Nc3cccc(N[C@@H]4CCC[C@@H](Nc5cccc6c5C(=O)N([C@@H]5CCC(=O)NC5=O)C6=O)C4)c3)CC[C@@H]12` [C64, N-(3-(N—(N-(4-(2-(3R-(2,6-dioxopiperidine))-isoindole-1,3-dione))-1R,3R-cyclohexanediamine))phenyl)-3-oxo-4-aza-5α-androst-1-ene-17β-carboxamide]: the concentration for half-maximal inhibition (IC50) in assay [1] (Homo sapiens, 72 h) was in the range of 0.1 to 10 nM; in assay [2] (Homo sapiens, 72 h), 0.1 to 10 nM; in assay [3] (Homo sapiens, 72 h), 0.1 to 10 nM.
Regarding `C[C@]12C=CC(=O)N[C@@H]1CC[C@@H]1[C@@H]2CC[C@]2(C)[C@@H](C(=O)NCCCCNc3cccc4c3C(=O)N(C3CCC(=O)NC3=O)C4=O)CC[C@@H]12` (stereo partly drawn) [C5, N-(4-((4-(2-(3-(2,6-dioxopiperidine))-isoindole-1,3-dione))amino)butyl)-3-oxo-4-aza-5α-androst-1-ene-17β-carboxamide], the IC50 is more than 1000 nM in assay [1] (Homo sapiens, 72 h); more than 1000 nM in assay [2] (Homo sapiens, 72 h); more than 1000 nM in assay [3] (Homo sapiens, 72 h).
For the compound “N-(3-(N—(N-(4-(2-(3-(2,6-dioxopiperidine))-isoindole-1,3-dione))-(1R,4S)-bicyclo[2,2,1]heptane-2R,6R-diamine))phenyl)-3-oxo-4-aza-5α-androst-1-ene-17β-carboxamide and N-(3-(N—(N-(4-(2-(3-(2,6-dioxopiperidine))-isoindole-1,3-dione))-(1S,4R)-bicyclo[2,2,1]heptane-2R,6R-diamine))phenyl)-3-oxo-4-aza-5α-androst-1-ene-17β-carboxamide [C71]”, the figures for the IC50 in assay [1], in assay [2] and in assay [3] were 10 to 1000 nM, 10 to 1000 nM and more than 1000 nM, respectively.
With `C[C@]12C=CC(=O)N[C@@H]1CC[C@@H]1[C@@H]2CC[C@]2(C)[C@@H](C(=O)Nc3ccc(OCCCCCCCCNc4ccc5c(c4)C(=O)N(C4CCC(=O)NC4=O)C5=O)cc3)CC[C@@H]12` (stereo partly drawn) [C26, N-(4-((8-((5-(2-(3-(2,6-dioxopiperidine))-isoindole-1,3-dione))amino)octyl)oxy)phenyl)-3-oxo-4-aza-5α-androst-1-ene-17β-carboxamide], the IC50 in assay [1] (Homo sapiens, 72 h) was 0.1 to 10 nM; in assay [2] (Homo sapiens, 72 h) it was 10 to 1000 nM; in assay [3] (Homo sapiens, 72 h), more than 1000 nM.
As to `C[C@]12C=CC(=O)N[C@@H]1CC[C@@H]1[C@@H]2CC[C@]2(C)[C@@H](C(=O)Nc3ccc(OCCCCCCCNc4ccc5c(c4)C(=O)N(C4CCC(=O)NC4=O)C5=O)cc3)CC[C@@H]12` (stereo partly drawn) [C24, N-(4-((7-((5-(2-(3-(2,6-dioxopiperidine))-isoindole-1,3-dione))amino)heptyl)oxy)phenyl)-3-oxo-4-aza-5α-androst-1-ene-17β-carboxamide], the 50% inhibitory concentration (IC50) in assay [1] (Homo sapiens, 72 h) was more than 1000 nM; in assay [2] (Homo sapiens, 72 h), more than 1000 nM; in assay [3] (Homo sapiens, 72 h), more than 1000 nM.
`C[C@]12C=CC(=O)N[C@@H]1CC[C@@H]1[C@@H]2CC[C@]2(C)[C@@H](C(=O)NCCCCCNc3cccc4c3C(=O)N(C3CCC(=O)NC3=O)C4=O)CC[C@@H]12` (stereo partly drawn) [C7, N-(5-((4-(2-(3-(2,6-dioxopiperidine))-isoindole-1,3-dione))amino)pentyl)-3-oxo-4-aza-5α-androst-1-ene-17β-carboxamide]: the IC50 in assay [1] (Homo sapiens, 72 h) was more than 1000 nM; in assay [2] (Homo sapiens, 72 h), more than 1000 nM; in assay [3] (Homo sapiens, 72 h) it was more than 1000 nM.
For `CN1C[C@@H](Nc2cccc(NC(=O)[C@H]3CC[C@H]4[C@@H]5CC[C@H]6NC(=O)C=C[C@]6(C)[C@H]5CC[C@]34C)c2)C[C@H](Nc2cccc3c2C(=O)N(C2CCC(=O)NC2=O)C3=O)C1` (stereo partly drawn) [C77, N-(3-(N—(N-(4-(2-(3-(2,6-dioxopiperidine))-isoindole-1,3-dione))-1-methylpiperidine-3S,5S-diamine))phenyl)-3-oxo-4-aza-5α-androst-1-ene-17β-carboxamide], the IC50 in assay [1] (Homo sapiens, 72 h) fell in the range of 10 to 1000 nM; in assay [2] (Homo sapiens, 72 h), 10 to 1000 nM; in assay [3] (Homo sapiens, 72 h), 10 to 1000 nM.
Turning to `C[C@]12C=CC(=O)N[C@@H]1CC[C@@H]1[C@@H]2CC[C@]2(C)[C@@H](C(=O)Nc3ccc(OCCCCCCCCNc4cccc5c4C(=O)N(C4CCC(=O)NC4=O)C5=O)cc3)CC[C@@H]12` (stereo partly drawn) [C25, N-(4-((8-((4-(2-(3-(2,6-dioxopiperidine))-isoindole-1,3-dione))amino)octyl)oxy)phenyl)-3-oxo-4-aza-5α-androst-1-ene-17β-carboxamide], the half-maximal inhibitory concentration (IC50) in assay [1] (Homo sapiens, 72 h) was more than 1000 nM; in assay [2] (Homo sapiens, 72 h), more than 1000 nM; in assay [3] (Homo sapiens, 72 h), more than 1000 nM.
On to `C[C@]12C=CC(=O)N[C@@H]1CC[C@@H]1[C@@H]2CC[C@]2(C)[C@@H](C(=O)Nc3ccc(OCCCNc4ccc5c(c4)C(=O)N(C4CCC(=O)NC4=O)C5=O)cc3)CC[C@@H]12` (stereo partly drawn) [C18, N-(4-((3-((5-(2-(3-(2,6-dioxopiperidine))-isoindole-1,3-dione))amino)propyl)oxy)phenyl)-3-oxo-4-aza-5α-androst-1-ene-17β-carboxamide], for which the IC50 in assay [1] (Homo sapiens, 72 h) was more than 1000 nM; in assay [2] (Homo sapiens, 72 h), more than 1000 nM; in assay [3] (Homo sapiens, 72 h), more than 1000 nM.
As to `CC(C)(C)C(=O)OCN1C(=O)CCC(N2C(=O)c3cccc(NCCCOc4cccc(NC(=O)[C@H]5CC[C@H]6[C@@H]7CC[C@H]8NC(=O)C=C[C@]8(C)[C@H]7CC[C@]56C)c4)c3C2=O)C1=O` (stereo partly drawn) [C49, N-(3-((3-((4-(2-(3-(1-pivaloyloxymethyl-2,6-dioxopiperidine))-isoindole-1,3-dione))amino)propyl)oxy)phenyl)-3-oxo-4-aza-5α-androst-1-ene-17β-carboxamide], the IC50 in assay [1] (Homo sapiens, 72 h) is 0.1 to 10 nM; in assay [2] (Homo sapiens, 72 h), 0.1 to 10 nM; in assay [3] (Homo sapiens, 72 h), more than 1000 nM.
Take `C[C@]12C=CC(=O)N[C@@H]1CC[C@@H]1[C@@H]2CC[C@]2(C)[C@@H](C(=O)Nc3cccc(N[C@@H]4CCC[C@@H](Nc5cccc6c5CN([C@@H]5CCC(=O)NC5=O)C6=O)C4)c3)CC[C@@H]12` [C66, N-(3-(N—(N-(4-(2-(3R-(2,6-dioxopiperidine))-1-oxo-2,3-dihydro-1H-isoindol))-1R,3R-cyclohexanediamine))phenyl)-3-oxo-4-aza-5α-androst-1-ene-17β-carboxamide]: the IC50 in assay [1] (Homo sapiens, 72 h) was more than 1000 nM; in assay [2] (Homo sapiens, 72 h), more than 1000 nM; in assay [3] (Homo sapiens, 72 h), more than 1000 nM.
For the compound `C[C@]12C=CC(=O)N[C@@H]1CC[C@@H]1[C@@H]2CC[C@]2(C)[C@@H](C(=O)Nc3cccc(OCCCCCCNc4cccc5c4C(=O)N(C4CCC(=O)NC4=O)C5=O)c3)CC[C@@H]12` (stereo partly drawn) [C35, N-(3-((6-((4-(2-(3-(2,6-dioxopiperidine))-isoindole-1,3-dione))amino)hexyl)oxy)phenyl)-3-oxo-4-aza-5α-androst-1-ene-17β-carboxamide], the half-inhibitory concentration (IC50) in assay [1] (Homo sapiens, 72 h) is more than 1000 nM; in assay [2] (Homo sapiens, 72 h) it was more than 1000 nM; in assay [3] (Homo sapiens, 72 h) it was more than 1000 nM.
As for `C[C@]12C=CC(=O)N[C@@H]1CC[C@@H]1[C@@H]2CC[C@]2(C)[C@@H](C(=O)N3CCC(CN4CCN(c5cccc6c5C(=O)N(C5CCC(=O)NC5=O)C6=O)CC4)CC3)CC[C@@H]12` (stereo partly drawn) [C13, 1-(4-(2-(3-(2,6-dioxopiperidine))-isoindole-1,3-dione))-4-(4-(1-(3-oxo-4-aza-5α-androst-1-ene-17β-formyl)piperidine)methyl)-piperazine], the IC50 was more than 1000 nM in assay [1] (Homo sapiens, 72 h); more than 1000 nM in assay [2] (Homo sapiens, 72 h); more than 1000 nM in assay [3] (Homo sapiens, 72 h).
